Source: ChEMBL document CHEMBL5385848, “Discovery of novel hydroxyamidine based indoleamine 2,3-dioxygenase 1 (IDO1) and thioredoxin reductase 1 (TrxR1) dual inhibitors” (Eur J Med Chem, 2023)

Tests used:
[1] = target: T1, Thioredoxin reductase 1, cytoplasmic (Homo sapiens, UniProt Q16881); experiment: Inhibition of TrxR1 in human HeLa cells incubated for 24 hrs; format: cell-based
T1 sequence (Q16881 whole entry): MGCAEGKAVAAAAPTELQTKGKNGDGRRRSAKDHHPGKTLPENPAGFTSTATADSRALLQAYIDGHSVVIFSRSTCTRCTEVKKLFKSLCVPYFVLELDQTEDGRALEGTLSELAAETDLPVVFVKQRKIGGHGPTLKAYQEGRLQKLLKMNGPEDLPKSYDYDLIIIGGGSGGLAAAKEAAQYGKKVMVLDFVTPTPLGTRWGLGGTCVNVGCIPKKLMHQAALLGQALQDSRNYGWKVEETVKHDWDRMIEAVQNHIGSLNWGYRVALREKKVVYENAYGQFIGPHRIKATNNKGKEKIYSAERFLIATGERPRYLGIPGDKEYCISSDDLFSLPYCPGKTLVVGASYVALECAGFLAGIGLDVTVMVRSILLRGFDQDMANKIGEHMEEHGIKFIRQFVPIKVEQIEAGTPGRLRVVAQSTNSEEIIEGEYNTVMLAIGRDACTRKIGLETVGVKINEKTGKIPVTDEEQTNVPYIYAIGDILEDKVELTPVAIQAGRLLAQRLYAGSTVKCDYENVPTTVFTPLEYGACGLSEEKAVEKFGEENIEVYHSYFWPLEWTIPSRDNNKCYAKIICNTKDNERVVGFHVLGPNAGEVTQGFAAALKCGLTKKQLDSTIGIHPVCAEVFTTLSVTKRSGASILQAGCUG

HeLa = experiment: Cytotoxicity against human HeLa cells transfected with IDO1 siRNA incubated for 24 hrs by CCK-8 assay (reference value: 9.74 +/- 1.64 uM); format: functional, cell-based

EC50 [1]: 13.1 µM
SMILES: O=C(Cc1ccc(O)cc1)Nc1nnc(CCCNc2nonc2/C(=N\O)Nc2ccc(F)c(Br)c2)s1
IC50 (HeLa): 10.1 µM
